# Assay results published in patent publication US11753407B2, “Compounds for treating spinal muscular atrophy” (PTC Therapeutics, Inc., priority 2012, dated 2023).
# Columns and labels:
# [1] = tested on: SMN2 minigene mRNA (SMN2-A minigene) in HEK293H cells; assay: SMN2 minigene mRNA splicing RT-qPCR assay in cultured cells; assay type: cell-based, human; details: Homo sapiens, HEK293-H; concentration increasing full length SMN2 mRNA 1.5-fold relative to vehicle-treated cells; HEK293H cells with SMN2-A minigene, 24 hours, 7-point concentration data; read-out: EC1.5x for production of full length SMN2 mRNA
# Summary of the method: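 EC1.5× values derive from a 24 h treatment of SMN2-A minigene HEK293H cells and GAPDH-normalized RT-qPCR of exon 7-included minigene mRNA relative to vehicle-treated cells.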
# [2] = tested on: Smn protein in SMA patient fibroblast cells (GM03813); assay: Smn protein assay in cultured cells (SMN HTRF); assay type: cell-based, human; details: SMA patient fibroblast cells, 48 hours; for EC1.5x for Smn protein expression: 7-point concentration curve, SMN HTRF, concentration producing 1.5 times Smn protein vs DMSO vehicle control; for maximum fold (Fold) increase of Smn protein: 7-point concentration data, fold relative to vehicle control
# Summary of the method: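 Cells were cultured 72 h, seeded at 5,000/well and dosed with seven concentrations (3.16-fold apart) for 48 h. HTRF on lysates, read at 665 and 620 nm, gave blank-corrected ΔF values relative to DMSO. Potency is reported as EC1.5×, efficacy as maximal fold Smn increase.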
SMILES,EC (1.5-fold increase) [1],EC1.5x for Smn protein expression [2],maximum fold (Fold) increase of Smn protein [2],melting point
"CCc1nc(C)cn2nc(-c3cc(=O)n4cc(N5CCC(N(C)C)CC5)ccc4n3)cc12 [Compound 550, 7-[4-(dimethylamino)piperidin-1-yl]-2-(4-ethyl-6-methylpyrazolo[1,5-a]pyrazin-2-yl)-4H-pyrido[1,2-a]pyrimidin-4-one]",< 0.1 µM,**** (an EC1.5x≤0.3 μM is indicated by four stars (****)),***** (a fold increase >1.65 is indicated by five stars (*****)),258 to 260 °C
"CCc1nc(C)cn2nc(-c3cc(=O)n4cc(N5CCC(N(CC)CC)CC5)ccc4n3)cc12 [Compound 551, 7-[4-(diethylamino)piperidin-1-yl]-2-(4-ethyl-6-methylpyrazolo[1,5-a]pyrazin-2-yl)-4H-pyrido[1,2-a]pyrimidin-4-one]",0.1 to 0.3 µM,**** (an EC1.5x≤0.3 μM is indicated by four stars (****)),***** (a fold increase >1.65 is indicated by five stars (*****)),232 to 235 °C
"C[C@@H]1CN(c2ccc3nc(-c4ccc5c(cnn5C)c4)cc(=O)n3c2)C[C@H](C)N1 [Compound 552, 7-[(3R,5S)-3,5-dimethylpiperazin-1-yl]-2-(1-methyl-1H-indazol-5-yl)-4H-pyrido[1,2-a]pyrimidin-4-one]",0.3 to 1 µM,*** (an EC1.5× between >0.3 μM and ≤1 μM is indicated by three stars (***)),**** (a fold increase between >1.5 and ≤1.65 is indicated by four stars (****)),240 to 242 °C
"C[C@H]1CN(c2ccc3nc(-c4ccc5c(cnn5C)c4)cc(=O)n3c2)CCN1 [Compound 553, 2-(1-methyl-1H-indazol-5-yl)-7-[(3S)-3-methylpiperazin-1-yl]-4H-pyrido[1,2-a]pyrimidin-4-one]",0.1 to 0.3 µM,**** (an EC1.5x≤0.3 μM is indicated by four stars (****)),***** (a fold increase >1.65 is indicated by five stars (*****)),206 to 208 °C
"Cc1cn2cc(-c3cc(=O)n4cc(C5CCN(C(C)C)CC5)ccc4n3)ccc2n1 [Compound 554, 2-(2-methylimidazo[1,2-a]pyridin-6-yl)-7-[1-(propan-2-yl)piperidin-4-yl]-4H-pyrido[1,2-a]pyrimidin-4-one]",0.1 to 0.3 µM,**** (an EC1.5x≤0.3 μM is indicated by four stars (****)),***** (a fold increase >1.65 is indicated by five stars (*****)),218 to 220 °C
"Cc1cn2ccc(-c3cc(=O)n4cc(N5CCNCC5)ccc4n3)cc2n1 [Compound 555, 2-(2-methylimidazo[1,2-a]pyridin-7-yl)-7-(piperazin-1-yl)-4H-pyrido[1,2-a]pyrimidin-4-one]",1 to 3 µM,** (an EC1.5× between >1 μM and ≤3 μM is indicated by two stars (**)),*** (a fold increase between >1.35 and ≤1.5 is indicated by three stars (***)),272 to 277 °C
"Cc1cn2ccc(-c3cc(=O)n4cc(C5CCNCC5)ccc4n3)cc2n1 [Compound 556, 2-(2-methylimidazo[1,2-a]pyridin-7-yl)-7-(piperidin-4-yl)-4H-pyrido[1,2-a]pyrimidin-4-one]",0.3 to 1 µM,** (an EC1.5× between >1 μM and ≤3 μM is indicated by two stars (**)),*** (a fold increase between >1.35 and ≤1.5 is indicated by three stars (***)),257 to 260 °C
"Cc1cn2ccc(-c3cc(=O)n4cc(N5CCN(C)CC5)ccc4n3)cc2n1 [Compound 557, 2-(2-methylimidazo[1,2-a]pyridin-7-yl)-7-(4-methylpiperazin-1-yl)-4H-pyrido[1,2-a]pyrimidin-4-one]",1 to 3 µM,–,* (A maximum fold increase of ≤1.2 is indicated by one star (*)),285 to 288 °C
"CCN1CCN(c2ccc3nc(-c4ccn5cc(C)nc5c4)cc(=O)n3c2)CC1 [Compound 558, 7-(4-ethylpiperazin-1-yl)-2-(2-methylimidazo[1,2-a]pyridin-7-yl)-4H-pyrido[1,2-a]pyrimidin-4-one]",1 to 3 µM,–,** (a fold increase between >1.2 and ≤1.35 is indicated by two stars (**)),219 to 222 °C
"Cc1cn2ccc(-c3cc(=O)n4cc(C5CCN(C)CC5)ccc4n3)cc2n1 [Compound 559, 2-(2-methylimidazo[1,2-a]pyridin-7-yl)-7-(1-methylpiperidin-4-yl)-4H-pyrido[1,2-a]pyrimidin-4-one]",1 to 3 µM,–,* (A maximum fold increase of ≤1.2 is indicated by one star (*)),255 to 260 °C
"CCN1CCC(c2ccc3nc(-c4ccn5cc(C)nc5c4)cc(=O)n3c2)CC1 [Compound 560, 7-(1-ethylpiperidin-4-yl)-2-(2-methylimidazo[1,2-a]pyridin-7-yl)-4H-pyrido[1,2-a]pyrimidin-4-one]",1 to 3 µM,–,* (A maximum fold increase of ≤1.2 is indicated by one star (*)),229 to 233 °C
"Cc1cn2nc(-c3cc(=O)n4cc(N5CCN[C@@H](C)C5)cc(C)c4n3)cc2c(C)n1 [Compound 561, 2-(4,6-dimethylpyrazolo[1,5-a]pyrazin-2-yl)-9-methyl-7-[(3S)-3-methylpiperazin-1-yl]-4H-pyrido[1,2-a]pyrimidin-4-one]",< 0.1 µM,**** (an EC1.5x≤0.3 μM is indicated by four stars (****)),**** (a fold increase between >1.5 and ≤1.65 is indicated by four stars (****)),210 to 219 °C
"Cc1cn2nc(-c3cc(=O)n4cc(N5C[C@@H](C)N[C@@H](C)C5)cc(C)c4n3)cc2c(C)n1 [Compound 562, 7-[(3R,5S)-3,5-dimethylpiperazin-1-yl]-2-(4,6-dimethylpyrazolo[1,5-a]pyrazin-2-yl)-9-methyl-4H-pyrido[1,2-a]pyrimidin-4-one]",0.3 to 1 µM,–,** (a fold increase between >1.2 and ≤1.35 is indicated by two stars (**)),273 to 283 °C
"Cc1cn2nc(-c3cc(=O)n4cc(N5CCN(C)[C@@H](C)C5)cc(C)c4n3)cc2c(C)n1 [Compound 563, 7-[(3S)-3,4-dimethylpiperazin-1-yl]-2-(4,6-dimethylpyrazolo[1,5-a]pyrazin-2-yl)-9-methyl-4H-pyrido[1,2-a]pyrimidin-4-one]",0.1 to 0.3 µM,**** (an EC1.5x≤0.3 μM is indicated by four stars (****)),***** (a fold increase >1.65 is indicated by five stars (*****)),244 to 253 °C
"Cc1cn2nc(-c3cc(=O)n4cc(N5C[C@@H](C)N(C)[C@@H](C)C5)cc(C)c4n3)cc2c(C)n1 [Compound 564, 2-(4,6-dimethylpyrazolo[1,5-a]pyrazin-2-yl)-9-methyl-7-[(3R,5S)-3,4,5-trimethylpiperazin-1-yl]-4H-pyrido[1,2-a]pyrimidin-4-one]",1 to 3 µM,–,* (A maximum fold increase of ≤1.2 is indicated by one star (*)),297 to 310 °C
"Cc1cn2cc(-c3cc(=O)n4cc(C5=CCN(C(C)C)CC5)ccc4n3)ccc2n1 [Compound 565, 2-(2-methylimidazo[1,2-a]pyridin-6-yl)-7-[1-(propan-2-yl)-1,2,3,6-tetrahydropyridin-4-yl]-4H-pyrido[1,2-a]pyrimidin-4-one]",< 0.1 µM,*** (an EC1.5× between >0.3 μM and ≤1 μM is indicated by three stars (***)),**** (a fold increase between >1.5 and ≤1.65 is indicated by four stars (****)),230 to 232 °C
"Cn1cc2cc(-c3cc(=O)n4cc(C5CCNCC5)ncc4n3)ccc2n1 [Compound 566, 2-(2-methyl-2H-indazol-5-yl)-7-(piperidin-4-yl)-4H-pyrazino[1,2-a]pyrimidin-4-one]",< 0.1 µM,**** (an EC1.5x≤0.3 μM is indicated by four stars (****)),***** (a fold increase >1.65 is indicated by five stars (*****)),235 to 237 °C
"CN1CCC(c2cn3c(=O)cc(-c4ccc5nn(C)cc5c4)nc3cn2)CC1 [Compound 567, 2-(2-methyl-2H-indazol-5-yl)-7-(1-methylpiperidin-4-yl)-4H-pyrazino[1,2-a]pyrimidin-4-one]",0.1 to 0.3 µM,*** (an EC1.5× between >0.3 μM and ≤1 μM is indicated by three stars (***)),**** (a fold increase between >1.5 and ≤1.65 is indicated by four stars (****)),275 to 277 °C
"CCN1CCC(c2cn3c(=O)cc(-c4ccc5nn(C)cc5c4)nc3cn2)CC1 [Compound 568, 7-(1-ethylpiperidin-4-yl)-2-(2-methyl-2H-indazol-5-yl)-4H-pyrazino[1,2-a]pyrimidin-4-one]",< 0.1 µM,**** (an EC1.5x≤0.3 μM is indicated by four stars (****)),***** (a fold increase >1.65 is indicated by five stars (*****)),198 to 200 °C
